The values that follow come from patent publication US8486991B2, “Enantiomerically pure phosphoindoles as HIV inhibitors” (Idenix Pharmaceuticals, Inc., priority 2006, dated 2013).

Like-named read-outs stand apart in the source and are kept apart here.

One series concerns the target CYP2D6 (Homo sapiens, UniProt P10635). The experiment in a line: Recombinant CYP450 inhibition, fluorometric, CYP2D6. Set-up: from tissue; host or cells: pooled human liver microsomes. Conditions: read-out: percentage of inhibition at the highest concentration tested, CYP2D6. Type of series: in vitro ADME. The procedure: (§1) Compounds were assayed using recombinant human microsomal proteins with fluorometric substrates. Signal was measured with a Fusion plate reader utilizing the appropriate excitation and emission wavelength set to detect the specific metabolite: […]

Series [1] in a line: In vivo pharmacokinetics, dogs. Conditions: both sexes, Dog; for Tmax: mean; for bioavailability: read-out: BA (absolute oral bioavailability). The procedure: All animals received a single oral or intravenous dose of compound in either polyethylene glycol 400 (PEG400) or a mixture of 10% ethanol (EtOH), 10% dimethylacetamine (DMA) and 80% PEG400 at the indicated dose level. Plasma concentration data were acquired using sensitive and specific LC-MS/MS methods. Pharmacokinetic data from the toxicity study included aspects of gender differences, variability and exposure.
Blood samples (1.5-2.5 mL) were collected in heparinized tubes at 0 (pre-dose), 5 (IV only), 10, 20, 30 min, 1, 2, 4, 6, 8, 12 (PO only) and 24 hr after dosing. Plasma was separated and stored at −70° C. until analysis.
Concentrations of unlabeled compound I and compound III within plasma samples and excreta from rat, dog and monkey PK studies were identified through high performance liquid chromatographic (HPLC) methods that incorporated tandem mass spectrometric detection (LC-MS/MS).
The absolute oral bioavailability was determined in pharmacokinetic by comparison of AUC values of parent compound following single intravenous and oral doses of in rats (compound III only), dogs and monkeys.

The next series addresses T1, CYP1A2 (Homo sapiens, UniProt P05177).
T1 sequence (P05177 1-516): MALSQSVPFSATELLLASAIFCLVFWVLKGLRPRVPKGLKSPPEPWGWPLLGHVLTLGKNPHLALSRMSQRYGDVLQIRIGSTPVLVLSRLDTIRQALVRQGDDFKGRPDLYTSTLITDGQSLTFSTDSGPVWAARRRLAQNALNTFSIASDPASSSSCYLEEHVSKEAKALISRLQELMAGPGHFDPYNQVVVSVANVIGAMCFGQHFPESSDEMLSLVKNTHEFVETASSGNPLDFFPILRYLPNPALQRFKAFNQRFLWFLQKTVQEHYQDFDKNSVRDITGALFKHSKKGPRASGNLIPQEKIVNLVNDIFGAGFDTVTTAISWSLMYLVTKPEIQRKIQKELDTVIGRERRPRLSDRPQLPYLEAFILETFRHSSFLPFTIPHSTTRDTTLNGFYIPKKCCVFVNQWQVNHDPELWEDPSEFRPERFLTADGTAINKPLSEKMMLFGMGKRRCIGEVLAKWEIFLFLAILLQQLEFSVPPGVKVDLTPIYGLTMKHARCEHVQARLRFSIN
In words: Human liver microsomal CYP450 inhibition, CYP1A2. Conditions: for IC50, CYP1A2: human liver microsomes. (Liver microsomes are a subcellular fraction often used to study metabolism.)

The target in series [2] is T2, wild-type HIV-1 RT enzyme in BH10 backbone (Human immunodeficiency virus type 1 group M subtype B, UniProt P03366).
T2 construct: wild-type HIV RT enzyme derived from HIV subtype B (BH-10 strain)
The experiment in a line: biochemical. Conditions: for IC50: Average IC50 Values ± Standard Deviation, W.T.; for Fold Change, W.T.: Table 2, mutant vs wild-type; for Average Fold Changes ± Standard Deviation, W.T.: Table 4, IC50 mutant / IC50 wild-type. From the text:
In Vitro Antiviral Activity Against Additional Mutant HIV RT Enzymes

In the next series the target is T3, CYP2C8 (Homo sapiens, UniProt P10632).
T3 sequence (P10632 1-490): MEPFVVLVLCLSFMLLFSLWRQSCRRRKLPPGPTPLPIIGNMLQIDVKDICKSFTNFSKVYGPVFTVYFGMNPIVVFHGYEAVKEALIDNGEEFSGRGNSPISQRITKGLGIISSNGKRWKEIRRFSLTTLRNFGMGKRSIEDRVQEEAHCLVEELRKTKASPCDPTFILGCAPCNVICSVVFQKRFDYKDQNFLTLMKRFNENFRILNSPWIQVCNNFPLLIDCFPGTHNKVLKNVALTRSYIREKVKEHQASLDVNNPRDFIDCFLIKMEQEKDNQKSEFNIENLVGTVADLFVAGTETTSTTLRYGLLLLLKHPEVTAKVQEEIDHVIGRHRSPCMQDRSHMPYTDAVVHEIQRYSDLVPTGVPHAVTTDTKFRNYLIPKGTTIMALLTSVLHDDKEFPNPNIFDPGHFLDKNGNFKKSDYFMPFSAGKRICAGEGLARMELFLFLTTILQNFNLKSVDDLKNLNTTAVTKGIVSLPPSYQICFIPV
In words: Human liver microsomal CYP450 inhibition, CYP2C8. To be noted: for Type of inhibition, CYP2C8 (Paclitaxel): human liver microsomes; for IC50: human, pooled human liver microsomes, probe paclitaxel.

A short description of series [3]: In vitro half-life in liver microsomes, dog. Type of series: in vitro ADME. Conditions: up to one hour, longer half-lives are extrapolated, n=1. The procedure: In vitro metabolism was assessed using liver microsomes for all species. Compounds were incubated at 1 μM with liver microsomes for up to one hour. Reported half-lives greater than the total incubation time are extrapolated values. Extracts were assayed for disappearance of parent compound by LC-MS/MS detection.
Data represents one independent experiment conducted.

A further series addresses T4, CYP2B6 (Homo sapiens, UniProt P20813).
T4 sequence (P20813 1-491): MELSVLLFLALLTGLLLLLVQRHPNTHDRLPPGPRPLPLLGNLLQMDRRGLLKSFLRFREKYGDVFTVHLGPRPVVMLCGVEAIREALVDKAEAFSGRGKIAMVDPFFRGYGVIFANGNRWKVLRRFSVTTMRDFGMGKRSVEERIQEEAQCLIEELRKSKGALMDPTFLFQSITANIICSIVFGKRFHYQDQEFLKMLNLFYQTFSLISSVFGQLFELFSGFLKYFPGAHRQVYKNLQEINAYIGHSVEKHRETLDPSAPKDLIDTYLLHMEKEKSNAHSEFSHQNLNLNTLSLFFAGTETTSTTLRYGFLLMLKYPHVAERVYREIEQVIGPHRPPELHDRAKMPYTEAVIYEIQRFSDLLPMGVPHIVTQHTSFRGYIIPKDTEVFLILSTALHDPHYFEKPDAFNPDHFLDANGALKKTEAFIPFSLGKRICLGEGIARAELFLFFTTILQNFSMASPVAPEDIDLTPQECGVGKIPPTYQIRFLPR
In words: Recombinant CYP450 inhibition, fluorometric, CYP2B6. It is filed as in vitro ADME. Also noted: from tissue; host or cells: pooled human liver microsomes. To be noted: read-out: percentage of inhibition at the highest concentration tested, CYP2B6. The procedure:
as §1

Setting [4] is: Table 1, in presence of detergent.
[5] abbreviates: plasma, 20 mg/kg PO-Fed, 1M, 1F.

CYP2D6, sequence (P10635 whole entry, the tested form may be a part): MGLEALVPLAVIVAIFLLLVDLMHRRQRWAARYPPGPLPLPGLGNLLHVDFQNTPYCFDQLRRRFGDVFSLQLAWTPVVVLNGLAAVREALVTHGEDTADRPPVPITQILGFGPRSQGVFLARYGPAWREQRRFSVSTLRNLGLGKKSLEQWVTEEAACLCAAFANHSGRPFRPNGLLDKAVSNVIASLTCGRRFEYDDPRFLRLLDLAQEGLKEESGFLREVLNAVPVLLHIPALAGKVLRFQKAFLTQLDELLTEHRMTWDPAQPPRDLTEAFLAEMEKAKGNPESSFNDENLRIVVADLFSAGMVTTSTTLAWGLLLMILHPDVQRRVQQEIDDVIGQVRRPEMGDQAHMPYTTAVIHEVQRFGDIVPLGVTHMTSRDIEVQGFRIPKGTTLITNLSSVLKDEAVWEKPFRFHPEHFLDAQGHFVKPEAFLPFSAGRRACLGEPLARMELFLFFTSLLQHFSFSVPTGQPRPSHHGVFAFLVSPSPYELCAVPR
Protocol for CYP1A2: (§2) In addition, the type of inhibition was also evaluated.
(§3) Enzyme kinetic studies of cytochrome P450 isozyme inhibition were conducted using human liver microsomes.
Protocol for CYP2C8: as §2, §3
Probe substrate for 2C8 was paclitaxel, probe substrate for 2C9 was diclofenac and for 3A4 probe substrates were midazolam and testosterone.

On to `CO[P@](=O)(c1cc(C)cc(/C=C/C#N)c1)c1c(C(N)=O)[nH]c2ccc(Cl)c(F)c12` [Compound I, (2-Carbamoyl-5-chloro-4-fluoro-1H-indol-3-yl)-[3-((E)-2-cyano-vinyl)-5-methyl-phenyl]-(R)-phosphinic acid methyl ester], for which, at CYP2D6 (recombinant enzyme), the inhibition at 10 µM was found to be 11.2%. For the same molecule, the Tmax in series [1] (in vivo, 5 mg/kg PO-Fed, M+F) is 18 min. Moreover, in series [1] (in vivo, 5 mg/kg PO-Fed, M+F, IV 1 mg/kg), the bioavailability turned out to be 9%. In addition, on CYP1A2, the IC50 is greater than 20000 nM and the “IC50, CYP1A2” value was “not observed”. For the same molecule, the IC50 in series [2] (setting [4]) amounted to 366 ± 251 nM. Moreover, inhibition in series [2] (Table 3, N=10) was half-maximal at 230 ± 50 nM (IC50). In series [2], the “Fold Change, W.T.” value is given as 1 fold and the “Average Fold Changes ± Standard Deviation, W.T.” value turned out to be 1 fold. Further, at CYP2C8, the Ki was 1100 nM; the “Type of inhibition, CYP2C8 (Paclitaxel)” value was “competitive inhibition”; the IC50 is less than 10000 nM. The “Type of inhibition, CYP2C8 (Paclitaxel)” value at CYP2C8 (listed as compound I) is on record as “competitive inhibition”. Further, in series [3] (microsomes), the half-life at 1 μM is 19.3 min. Besides, the inhibition at 20 µM at CYP2B6 (recombinant enzyme) was 21.6%.

Take `CO[P@](=O)(c1cc(C)cc(/C=C/C#N)c1)c1c(C(N)=O)[nH]c2ccc(Cl)cc12` [Compound III, (2-Carbamoyl-5-chloro-1H-indol-3-yl)-[3-((E)-2-cyano-vinyl)-5-methyl-phenyl]-(R)-phosphinic acid methyl ester]: the inhibition at 10 µM on CYP2D6 (recombinant human CYP2D6 microsomal protein) worked out at 15.2%. The Tmax in series [1] (plasma, 5 mg/kg PO-Fed, M+F) amounted to 90 min; in series [1] (setting [5]), 132 min. Also, the bioavailability in series [1] (plasma, 5 mg/kg PO-Fed, M+F, IV 1 mg/kg) was 4%; in series [1] (setting [5]), 23%. For the same molecule, the IC50 against CYP1A2 is greater than 20000 nM; in series [2] (setting [4]), 343 ± 83 nM; in series [2] (Table 3, N=10), 210 ± 20 nM; on CYP2C8, less than 10000 nM. Moreover, on CYP1A2, the “IC50, CYP1A2” value is recorded as “not observed”. For the same molecule, in series [2], the “Fold Change, W.T.” value was 1 fold. Also, the “Average Fold Changes ± Standard Deviation, W.T.” value in series [2] came out at 1 fold. The Ki at CYP2C8 amounted to 660 nM. In addition, the “Type of inhibition, CYP2C8 (Paclitaxel)” value on CYP2C8 and at CYP2C8 (listed as compound III) was “competitive inhibition” throughout. Besides, in series [3] (liver microsomes), the half-life at 1 μM is 13.2 min. On CYP2B6 (recombinant human CYP2B6 microsomal protein), the inhibition at 20 µM was found to be 22.9%.

What is called Tmax is the time from dosing to the highest level. Broadly, the bioavailability is the share of a dose that reaches the circulation, judged against a reference dose that is usually intravenous. As usually defined, the IC50 is the concentration at which inhibition is half-maximal. By Ki is commonly meant a measure of affinity in units of concentration, obtained from inhibition or displacement. Read a low Ki as a stronger hold on the target. Broadly, the half-life is the time in which the quantity being followed falls by half.
